Laboratory results published in ChEMBL document CHEMBL1201862, “PubChem BioAssay data set” (2004).
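Step 1: Grow cells in 96-well plates. Step 2: Expose to compound for 48 hours at 5 concentrations. Step 3: Interpolate endpoints linearly; if unreached, use highest concentration. The concentration for 50% growth inhibition is given as GI50.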 Calls of active or inactive are those of the source. Cut-off read from the data, not from the text of the source: active = GI50 up to about 1.1 µM and inactive = higher.

How the values were obtained:
Experiment in all cases: NCI tumour cell line growth inhibition, 48 h
NCI-H522 = system: NCI-H522
DU-145 = system: DU-145
OVCAR-3 = system: OVCAR-3
OVCAR-4 = system: OVCAR-4
COLO 205 = system: COLO 205
ACHN = system: ACHN
786-0 = system: 786-0
SF-295 = system: SF-295
PC-3 = system: PC-3
MDA-N = system: MDA-N
SK-MEL-2 = system: SK-MEL-2
SW-620 = system: SW-620
SK-MEL-28 = system: SK-MEL-28
NCI-H23 = system: NCI-H23
RPMI-8226 = system: RPMI-8226
HCT-116 = system: HCT-116
NCI/ADR-RES = system: NCI/ADR-RES
HOP-62 = system: HOP-62
HT-29 = system: HT-29
HCT-15 = system: HCT-15

Row | Structure (SMILES) | GI50 (NCI-H522) | GI50 (DU-145) | GI50 (OVCAR-3) | GI50 (OVCAR-4) | GI50 (COLO 205) | GI50 (ACHN) | GI50 (786-0) | GI50 (SF-295) | GI50 (PC-3) | GI50 (MDA-N) | GI50 (SK-MEL-2) | GI50 (SW-620) | GI50 (SK-MEL-28) | GI50 (NCI-H23) | GI50 (RPMI-8226) | GI50 (HCT-116) | GI50 (NCI/ADR-RES) | GI50 (HOP-62) | GI50 (HT-29) | GI50 (HCT-15) [µM]
1 | COc1cc(OCc2ccc3oc(=O)c(-c4ccccc4)nc3c2)cc(OC)c1OC | > 100 µM (inactive) | > 100 µM (inactive) | > 100 µM (inactive) | > 100 µM (inactive) | > 100 µM (inactive) | > 100 µM (inactive) | > 100 µM (inactive) | > 100 µM (inactive) | > 100 µM (inactive) | > 100 µM (inactive) | > 100 µM (inactive) | > 100 µM (inactive) | > 100 µM (inactive) | > 100 µM (inactive) | > 100 µM (inactive) | > 100 µM (inactive) | > 100 µM (inactive) | > 100 µM (inactive) | > 100 µM (inactive) | > 100
2 | C=C[C@]1(C)C[C@@H](OC(=O)CO)[C@@]2(C)[C@H](C)CC[C@]3(CCC(=O)[C@H]32)[C@@H](C)[C@@H]1O | 67.9 µM (inactive) | > 100 µM (inactive) | > 60.1 µM (inactive) | > 100 µM (inactive) | > 100 µM (inactive) | > 93.5 µM (inactive) | > 100 µM (inactive) | > 76.4 µM (inactive) | > 55.2 µM (inactive) | > 100 µM (inactive) | > 59.3 µM (inactive) | > 82.2 µM (inactive) | > 74.1 µM (inactive) | > 70.1 µM (inactive) | 70.5 µM (inactive) | > 55.6 µM (inactive) | > 100 µM (inactive) | 71.8 µM (inactive) | > 100 µM (inactive) | > 94.8
3 | COC1(C)CP(=O)(OC(C)C)CC(C)=C1Cl (stereo not given) | 9.62 µM (inactive) | 19.3 µM (inactive) | 10.7 µM (inactive) | 15 µM (inactive) | 14.5 µM (inactive) | 18.4 µM (inactive) | 19 µM (inactive) | 11.8 µM (inactive) | 25.5 µM (inactive) | 13.2 µM (inactive) | 6.41 µM (inactive) | 14.4 µM (inactive) | 21.7 µM (inactive) | 10.7 µM (inactive) | 3.78 µM (inactive) | 6.37 µM (inactive) | 17.8 µM (inactive) | 17.9 µM (inactive) | 12.3 µM (inactive) | 12.3
4 | CC[C@H](NC(=O)OC(C)(C)C)C(=O)NCP(=O)(OCc1ccc([N+](=O)[O-])cc1)OCc1ccc([N+](=O)[O-])cc1 | 31.6 µM (inactive) | 31.6 µM (inactive) | 11 µM (inactive) | 25.1 µM (inactive) | 16.5 µM (inactive) | 23 µM (inactive) | 92.9 µM (inactive) | 13.7 µM (inactive) | 34.8 µM (inactive) | 28.6 µM (inactive) | 50.9 µM (inactive) | 40.6 µM (inactive) | 28.4 µM (inactive) | 41.3 µM (inactive) | 27.7 µM (inactive) | 27.7 µM (inactive) | 33.1 µM (inactive) | 38.4 µM (inactive) | 17.7 µM (inactive) | 26.9
5 | Cn1c2ccccc2c2c3c(c4c5ccccc5n(C5OC(CO)C(O)C(O)C5O)c4c21)C(=O)OC3=O (stereo not given) | > 100 µM (inactive) | > 100 µM (inactive) | > 100 µM (inactive) | > 100 µM (inactive) | > 100 µM (inactive) | > 100 µM (inactive) | > 100 µM (inactive) | > 100 µM (inactive) | > 100 µM (inactive) | > 100 µM (inactive) | > 100 µM (inactive) | > 100 µM (inactive) | > 100 µM (inactive) | > 100 µM (inactive) | > 100 µM (inactive) | > 100 µM (inactive) | > 100 µM (inactive) | > 100 µM (inactive) | > 100 µM (inactive) | > 100
6 | Nc1nc(Cl)c(/N=N/c2ccc(Cl)cc2)c(NCC2(CO)CCC(CCc3ccccc3)C2)n1 (stereo not given) | 1.31 µM (inactive) | 13.2 µM (inactive) | 11 µM (inactive) | 1.5 µM (inactive) | 4.86 µM (inactive) | 5.97 µM (inactive) | 6.32 µM (inactive) | 11 µM (inactive) | 12.2 µM (inactive) | 11.4 µM (inactive) | 13.6 µM (inactive) | 3.92 µM (inactive) | 14.2 µM (inactive) | 1.26 µM (inactive) | 12.1 µM (inactive) | 6.11 µM (inactive) | 4.56 µM (inactive) | 13.7 µM (inactive) | 12.1 µM (inactive) | 6.87
7 | CCCCC1(N=[N+]=[N-])C(=O)C2C=CC=C3c4ccccc4N(C1=O)C32 (stereo not given) | 13.6 µM (inactive) | 58.5 µM (inactive) | 21.6 µM (inactive) | 21.6 µM (inactive) | 18.5 µM (inactive) | 17.5 µM (inactive) | 22 µM (inactive) | 24.7 µM (inactive) | 18.9 µM (inactive) | 15.7 µM (inactive) | 11 µM (inactive) | 20.2 µM (inactive) | 78.2 µM (inactive) | 14.4 µM (inactive) | 17.7 µM (inactive) | 18.1 µM (inactive) | 17.7 µM (inactive) | 27.1 µM (inactive) | 14.1 µM (inactive) | 17.2
8 | COC(=O)Nc1nc2cc(NS(=O)(=O)c3ccc(Cl)cc3)ccc2[nH]1 | 3.4 µM (inactive) | 20.4 µM (inactive) | 3.29 µM (inactive) | 13 µM (inactive) | 9.1 µM (inactive) | 14.2 µM (inactive) | 17.7 µM (inactive) | 4.45 µM (inactive) | 8.55 µM (inactive) | 2.18 µM (inactive) | 6.37 µM (inactive) | 5.11 µM (inactive) | 6.79 µM (inactive) | 9.93 µM (inactive) | 6.75 µM (inactive) | 2.45 µM (inactive) | 8.59 µM (inactive) | 10.7 µM (inactive) | 4.26 µM (inactive) | 6.44
9 | CCCCCCCCCCCCCCCCCCNc1ccn(C2OC(COP(=O)(O)OCC3OC(n4cc(C)c(=O)[nH]c4=O)CC3N=[N+]=[N-])C(O)C2O)c(=O)n1 (stereo not given) | 13.3 µM (inactive) | 95.5 µM (inactive) | 36.9 µM (inactive) | 25.7 µM (inactive) | 14.5 µM (inactive) | 54 µM (inactive) | 29.5 µM (inactive) | 18.3 µM (inactive) | 8.81 µM (inactive) | 43.7 µM (inactive) | 22.8 µM (inactive) | 22.5 µM (inactive) | 18.6 µM (inactive) | 19.5 µM (inactive) | 11.8 µM (inactive) | 39.7 µM (inactive) | 21 µM (inactive) | 23.2 µM (inactive) | 19.2 µM (inactive) | 18.8
10 | COc1ccc2oc(=O)c(-c3nc4ccccc4s3)cc2c1 | 29.4 µM (inactive) | 21.8 µM (inactive) | 14.2 µM (inactive) | 20.8 µM (inactive) | 54.1 µM (inactive) | 5.55 µM (inactive) | 7.82 µM (inactive) | 21.5 µM (inactive) | 63.8 µM (inactive) | 20.1 µM (inactive) | > 100 µM (inactive) | 32.6 µM (inactive) | > 59.3 µM (inactive) | 27.5 µM (inactive) | > 62.7 µM (inactive) | 11.6 µM (inactive) | 28.8 µM (inactive) | 14.2 µM (inactive) | 13.6 µM (inactive) | > 79.6
11 | O=C(OCc1ccccc1)N1CCNCCNCC1 | > 100 µM (inactive) | > 100 µM (inactive) | > 100 µM (inactive) | > 100 µM (inactive) | > 100 µM (inactive) | > 100 µM (inactive) | > 100 µM (inactive) | > 100 µM (inactive) | > 100 µM (inactive) | > 100 µM (inactive) | > 100 µM (inactive) | > 100 µM (inactive) | > 100 µM (inactive) | > 100 µM (inactive) | > 100 µM (inactive) | > 100 µM (inactive) | > 100 µM (inactive) | > 100 µM (inactive) | > 100 µM (inactive) | > 100
12 | CCCCC(C(=O)NCCNC(=O)CCC(=O)N(C)O)C(=O)NCCNC(=O)CCC(=O)N(C)O | > 100 µM (inactive) | > 100 µM (inactive) | > 100 µM (inactive) | > 100 µM (inactive) | > 100 µM (inactive) | > 100 µM (inactive) | > 100 µM (inactive) | > 100 µM (inactive) | > 100 µM (inactive) | > 100 µM (inactive) | > 100 µM (inactive) | > 100 µM (inactive) | > 100 µM (inactive) | > 100 µM (inactive) | > 100 µM (inactive) | > 100 µM (inactive) | > 100 µM (inactive) | > 100 µM (inactive) | > 100 µM (inactive) | > 100
13 | NC(=S)N/N=C\CC(O)(C(F)(F)F)C(F)(F)F | > 10 µM (inactive) | > 10 µM (inactive) | > 10 µM (inactive) | > 10 µM (inactive) | > 10 µM (inactive) | > 10 µM (inactive) | > 10 µM (inactive) | > 10 µM (inactive) | > 10 µM (inactive) | > 10 µM (inactive) | > 10 µM (inactive) | > 10 µM (inactive) | > 10 µM (inactive) | > 10 µM (inactive) | > 10 µM (inactive) | > 10 µM (inactive) | > 10 µM (inactive) | > 10 µM (inactive) | > 10 µM (inactive) | > 10
14 | CCC(C)C1NC(=O)C(NC(=O)C(CC(C)C)N(C)C(=O)[C@@H]2C=CCN2C(=O)[C@H](C)O)C(C)OC(=O)[C@H](Cc2ccc(OC)cc2)N(C)C(=O)[C@@H]2CCCN2C(=O)[C@H](CC(C)C)NC(=O)C(C)C(=O)[C@H](C(C)C)OC(=O)CC1O (stereo not given in full) | 0.00111 µM (active) | 0.00501 µM (active) | 0.00393 µM (active) | 0.00234 µM (active) | 0.00143 µM (active) | 0.00402 µM (active) | 0.00185 µM (active) | 0.00248 µM (active) | 0.00291 µM (active) | 0.00293 µM (active) | < 0.01 µM (active) | 0.00308 µM (active) | 0.00138 µM (active) | 0.00184 µM (active) | 0.00267 µM (active) | 0.00103 µM (active) | 0.0419 µM (active) | 0.00303 µM (active) | 0.00252 µM (active) | 0.0239
